{
  "source": "patent US12673956B2",
  "about": "“Oxadiazolyl dihydropyrano[2,3-b]pyridine inhibitors of HIPK2 for treating kidney fibrosis” (ICAHN SCHOOL OF MEDICINE AT MOUNT SINAI, priority 2021, dated 2026)",
  "key": {"[1]": {"system": "TGF/SMAD Signaling Pathway SBE Reporter—HEK293 Cell Line", "test": "Luciferase screen, TGF/SMAD SBE reporter HEK293 cells stimulated with TGFβ", "assay_type": "cell-based", "conditions": "Homo sapiens", "experimental": "For the data in Table 1, the Bight-Glo™ Luciferase Assay System from Promega was used with TGF/SMAD Signaling Pathway SBE Reporter—HEK293 Cell Line from BPSbioscience. On day 1 SBE reporter-HEK293 cells were seeded at a density of 25,000 cells per well into a white clear-bottom 96-well microplate in 100 μl of growth medium without geneticin. The plate was incubated at 37° C. in a CO2 incubator for 24 hrs. The wells were renewed with 60 μL assay medium and treated with test compounds by adding 5 μL of compounds in medium. The concentration of test compound in medium is adjusted so that 5 μL will provide the desired molarity of the solution. For example, if the desired test concentration is 30 µM, then 5 μL of […] compound is added. After 4 hours, TGFβ was added to 10 ng/mL. The plate was incubated at 37° C. in a CO2 incubator overnight (18 hours). One hour prior to assay all medium was replaced. The luciferase assay was run using ONE-Step™ Luciferase Assay System by adding 100 al of ONE-Step™ Luciferase reagent per well, rocking at room temperature for ~15 to 30 minutes and measuring luminescence using a luminometer. The signals were normalized to percentage inhibition, with non-TGF treated cells as 100% inhibition, and the data were processed by Graphpad Prism."}, "Tg26 mice": {"system": "Tg26 mice", "test": "Tg26 mice, model of HIV-associated nephropathy (chronic kidney disease)", "assay_type": "in vivo", "text": "(§1) Activity of compounds of the invention was confirmed in vivo. Two chronic kidney disease models were employed: (1) Tg26 mice, a model of HIV-associated nephropathy, and (2) Col4a3-null mice, a model of Alport syndrome. Both CKD models are characterized by advanced glomerulosclerosis and tubulointerstitial fibrosis, leading to kidney failure and death approximately between 12 and 20 weeks of age.\nTg26 mice of FVB/N genetic background bearing a defective HIV-1 provirus lacking gag-pol have been described by Feng et al. [J Am Soc Nephrol 2009; 20: 2138-2146]. Six-week old heterozygous Tg26 mice are used. Wildtype littermates are used as controls. Mice in the treatment group receive test compound dissolved in 20% NMP, 60% PEG400, and 20% H2O by oral gavage at a dose of 30, 60, or 90 mg/kg body weight per day. Mice in the control group receive the same volume of vehicle. The mice are treated for a total of 4 weeks and sacrificed at age of 10 weeks. […] In another trial, 5- to 6-week old Tg26 mice were treated with Example 13 (90 mg/kg daily, PO) or vehicle for 4 weeks: 38% (8/21 mice) died of kidney failure in the control group within the experimental duration; 0% died in the HIPK2i-174 group (0/18 mice). […] [Because of significant inter-variability of baseline UACR in Tg26 mice at 5-6 weeks of age, the therapeutic effect is calculated based on fold change to baseline for each mouse.]"}, "Col4a3-deficient mice": {"system": "Col4a3-deficient mice", "test": "Col4a3-deficient mice, model of Alport syndrome (chronic kidney disease)", "assay_type": "in vivo", "conditions": "60 mg/kg daily PO", "experimental": "as §1\nThree-week old Col4a3-deficient mice were treated with Example 13 (60 mg/kg daily, PO) or vehicle for 6 weeks. The median survival in vehicle group was 56 days, which was increased to 68 days in the treated group (21% increase)."}, "[2]": {"conditions": "SBE reporter-HEK293 cells, TGFβ 10 ng/mL, 18 hours, read-out: Luciferase IC50"}, "[3]": {"conditions": "another trial, 90 mg/kg daily PO, 4 weeks"}, "[4]": {"conditions": "first trial, four-week treatment, n=8"}, "[5]": {"conditions": "first trial, four-week treatment, vs. vehicle"}, "[6]": {"conditions": "HEK293, 18 h, read-out: Luciferase IC50 nM"}},
  "note": "Read-outs that look alike come from different tables or passages of the source.",
  "data": [
    {"smiles": "CC1(C)Oc2ncc(-c3nc(-c4ncc(Cl)s4)no3)cc2C[C@H]1O", "note": "[Example 25, (R)-6-(3-(5-chlorothiazol-2-yl)-1,2,4-oxadiazol-5-yl)-2,2-dimethyl-3,4-dihydro-2H-pyrano[2,3-b]pyridin-3-ol]", "values": [
      {"measurement": "IC50", "setting": "[1]; [2]", "value": 206, "unit": "nM"}
    ]},
    {"smiles": "CC1(C)Oc2ncc(-c3nc(-c4ccc(Cl)cc4)no3)cc2CC1O", "note": "(stereo in doubt) [Example 13, (S)-6-(3-(4-chlorophenyl)-1,2,4-oxadiazol-5-yl)-2,2-dimethyl-3,4-dihydro-2H-pyrano[2,3-b]pyridin-3-ol]", "values": [
      {"measurement": "IC50", "setting": "[1]; [2]", "value": 156, "unit": "nM"},
      {"measurement": "reduction in kidney fibrosis (picrosirius red staining) in comparison to vehicle group", "setting": "Tg26 mice; [3]", "value": "~ 37%"},
      {"measurement": "reduction of urinary albumin-to-creatinine ratio from baseline values", "setting": "Tg26 mice; [3]", "value": "~ 57%"},
      {"measurement": "urinary albumin-to-creatinine ratio, fold change to baseline", "setting": "Tg26 mice; another trial, 90 mg/kg daily PO, 4 weeks, n=17", "value": "0.43±0.28"},
      {"measurement": "kidney fibrosis assessed by picrosirius red histological staining", "setting": "Tg26 mice; another trial, 90 mg/kg daily PO, 4 weeks, n=18", "value": "2.8±1.2", "unit": "%"},
      {"measurement": "died of kidney failure within the experimental duration", "setting": "Tg26 mice; another trial, 5- to 6-week old Tg26 mice, 90 mg/kg daily PO, 4 weeks, 0/18 mice", "value": 0, "unit": "%"},
      {"measurement": "Hazard ratio comparing vehicle vs. treatment", "setting": "Tg26 mice; first trial, four-week treatment, Log-rank Mantel-Cox test", "value": 7.2},
      {"measurement": "average fold change in urinary albumin-to-creatinine ratio from week 0 to week 4", "setting": "Tg26 mice; [4]", "value": 0.352},
      {"measurement": "renal fibrosis, average % area", "setting": "Tg26 mice; [4]", "value": 2.540, "unit": "%"},
      {"measurement": "reduction in average fold change in urinary albumin-to-creatinine ratio", "setting": "Tg26 mice; [5]", "value": "~ 65%"},
      {"measurement": "reduction in renal fibrosis area", "setting": "Tg26 mice; [5]", "value": "~ 43%"},
      {"measurement": "survival", "setting": "Tg26 mice; first trial, six-week old Tg26 mice, oral gavage 30, 60, or 90 mg/kg per day, four-week treatment, n=20", "value": 100, "unit": "%"},
      {"measurement": "increase of median survival vs. vehicle group", "setting": "Col4a3-deficient mice; 6 weeks", "value": 21, "unit": "%"},
      {"measurement": "reduction in kidney fibrosis (picrosirius red staining) in comparison to vehicle group", "setting": "Col4a3-deficient mice; 6 weeks", "value": "~ 51%"},
      {"measurement": "kidney fibrosis assessed by picrosirius red histological staining", "setting": "Col4a3-deficient mice; 6 weeks, n=9", "value": "13.7±6.3", "unit": "%"},
      {"measurement": "reduction of urinary albumin-to-creatinine ratio vs. vehicle", "setting": "Col4a3-deficient mice; after 6 weeks of treatment", "value": "~ 45%"},
      {"measurement": "urinary albumin-to-creatinine ratio", "setting": "Col4a3-deficient mice; after 6 weeks of treatment", "value": "41.4 ± 14.2", "unit": "mg/mg"},
      {"measurement": "median survival", "setting": "Col4a3-deficient mice; three-week old mice, 6 weeks", "value": 68, "unit": "days"}
    ]},
    {"smiles": "CC1(C)Oc2ncc(-c3nc(-c4ccc(Br)cc4)no3)cc2CC1O", "note": "(centres unmarked) [Example 1, 6-(3-(4-bromophenyl)-1,2,4-oxadiazol-5-yl)-2,2-dimethyl-3,4-dihydro-2H-pyrano[2,3-b]pyridin-3-ol]", "values": [
      {"measurement": "IC50", "setting": "[1]; [6]", "value": 43, "unit": "nM"}
    ]},
    {"smiles": "CC1(C)Oc2ncc(-c3nc(-c4ccc(Cl)cc4)no3)cc2CC1O", "note": "(stereo in doubt) [Example 12, (R)-6-(3-(4-chlorophenyl)-1,2,4-oxadiazol-5-yl)-2,2-dimethyl-3,4-dihydro-2H-pyrano[2,3-b]pyridin-3-ol]", "values": [
      {"measurement": "IC50", "setting": "[1]; [2]", "value": 89, "unit": "nM"}
    ]},
    {"smiles": "CC1(C)Oc2ncc(-c3nc(-c4ccc(Br)cc4)no3)cc2C(N)C1O", "note": "(centres unmarked) [Example 2, 4-amino-6-(3-(4-bromophenyl)-1,2,4-oxadiazol-5-yl)-2,2-dimethyl-3,4-dihydro-2H-pyrano[2,3-b]pyridin-3-ol]", "values": [
      {"measurement": "IC50", "setting": "[1]; [6]", "value": 8150, "unit": "nM"}
    ]},
    {"smiles": "CC1(C)Oc2ncc(-c3nc(-c4cc(Cl)cc(Cl)c4)no3)cc2C[C@H]1O", "note": "[Example 40, (R)-6-(3-(3,5-dichlorophenyl)-1,2,4-oxadiazol-5-yl)-2,2-dimethyl-3,4-dihydro-2H-pyrano[2,3-b]pyridin-3-ol]", "values": [
      {"measurement": "IC50", "setting": "[1]; [2]", "value": 843, "unit": "nM"}
    ]},
    {"smiles": "Cc1cc(-c2noc(-c3cnc4c(c3)C[C@H](O)C(C)(C)O4)n2)ccc1Cl", "note": "[Example 36, (3S)-6-[3-(4-chloro-3-methyl-phenyl)-1,2,4-oxadiazol-5-yl]-2,2-dimethyl-3,4-dihydropyrano[2,3-b]pyridin-3-ol]", "values": [
      {"measurement": "IC50", "setting": "[1]; [6]", "value": 52, "unit": "nM"}
    ]},
    {"smiles": "CC1(C)CC(O)c2cc(-c3nc(-c4ccc(Br)cc4)no3)cnc2O1", "note": "(centres unmarked) [Example 5, 6-(3-(4-bromophenyl)-1,2,4-oxadiazol-5-yl)-2,2-dimethyl-3,4-dihydro-2H-pyrano[2,3-b]pyridin-4-ol]", "values": [
      {"measurement": "IC50", "setting": "[1]; [2]", "value": 86, "unit": "nM"}
    ]},
    {"smiles": "Cc1cc(-c2noc(-c3cnc4c(c3)C[C@@H](O)C(C)(C)O4)n2)ccc1Cl", "note": "[Example 37, (3R)-6-[3-(4-chloro-3-methyl-phenyl)-1,2,4-oxadiazol-5-yl]-2,2-dimethyl-3,4-dihydropyrano[2,3-b]pyridin-3-ol]", "values": [
      {"measurement": "IC50", "setting": "[1]; [2]", "value": 50, "unit": "nM"}
    ]},
    {"smiles": "C[C@H]1CCc2cc(-c3nc(-c4ccc(Br)cc4)no3)cnc2O1", "note": "[Example 3]", "values": [
      {"measurement": "IC50", "setting": "[1]; [2]", "value": 234, "unit": "nM"}
    ]},
    {"smiles": "CC1(C)Oc2ncc(-c3nc(-c4nc(Cl)cs4)no3)cc2C[C@H]1O", "note": "[Example 27, (R)-6-(3-(4-chlorothiazol-2-yl)-1,2,4-oxadiazol-5-yl)-2,2-dimethyl-3,4-dihydro-2H-pyrano[2,3-b]pyridin-3-ol]", "values": [
      {"measurement": "IC50", "setting": "[1]; [2]", "value": 705, "unit": "nM"}
    ]},
    {"smiles": "CC1(C)Oc2ncc(-c3nc(-c4cc(Cl)cc(Cl)c4)no3)cc2C[C@@H]1O", "note": "[Example 39, (S)-6-(3-(3,5-dichlorophenyl)-1,2,4-oxadiazol-5-yl)-2,2-dimethyl-3,4-dihydro-2H-pyrano[2,3-b]pyridin-3-ol]", "values": [
      {"measurement": "IC50", "setting": "[1]; [6]", "value": 1250, "unit": "nM"}
    ]}
  ]
}
